Source: ChEMBL document CHEMBL4420060, “Combinatorial therapies for the treatment of neoplasias using the opioid growth factor receptor” (2013)
Active and inactive are the calls of the source. No cut-off for these calls is given here.

Assays:
[1] = tested on: MIA PaCa-2; test: Antitumor activity against human MIAPaCa2 cells xenografted in athymic BALB/c nu/nu nude mouse assessed tumor volume at 120 mg/kg dosed every 3 days and co-treated with 10 mg/kg OGF measured on day 45 after tumor cell inoculation (reference value: 8935 +/- 1694 mm3); type: functional
[2] = tested on: MIA PaCa-2; test: Growth inhibition of human MIAPaCa2 cells assessed as decrease in cell number at 0.01 uM incubated for 48 hrs in presence of 1 uM OGF by trypan blue staining assay relative to control; type: functional
[3] = tested on: MIA PaCa-2; test: Antitumor activity against human MIAPaCa2 cells xenografted in athymic BALB/c nu/nu nude mouse assessed tumor weight at 120 mg/kg dosed every 3 days and co-treated with 10 mg/kg OGF measured on day 45 after tumor cell inoculation (reference value: 5.5 +/- 1 g); type: functional
[4] = tested on: MIA PaCa-2; test: Antitumor activity against human MIAPaCa2 cells xenografted in athymic BALB/c nu/nu nude mouse assessed as time delay in visible tumor development at 120 mg/kg dosed every 3 days and co-treated with 10 mg/kg OGF relative to control; type: functional
[5] = tested on: MIA PaCa-2; test: Antitumor activity against human MIAPaCa2 cells xenografted in athymic BALB/c nu/nu nude mouse assessed as tumor incidence at 10 mg/kg dosed daily measured on day 10 after tumor cell inoculation (reference value: 80%); type: functional
[6] = Toxicity in athymic BALB/c nu/nu nude mouse xenografted with human MIAPaCa2 cells assessed as body weight at 10 mg/kg dosed daily measured on day 45 after tumor cell inoculation (reference value: 33.3 +/- 1 g); type: organism-based; conditions: in vivo
[7] = tested on: MIA PaCa-2; test: Growth inhibition of human MIAPaCa2 cells assessed as decrease in cell number at 0.01 uM in presence of 1 uM OGF incubated for 48 hrs followed by compound wash out by 50% replacement of media and measured after 48 hrs by MTS assay relative to control; type: functional, cell-based
[8] = tested on: UMSCC1; test: Growth inhibition of human UM-SCC-1 cells assessed as decrease in cell number at 0.01 uM in presence of 1 uM opioid antagonist naloxone incubated for 24 to 96 hrs by MTS assay relative to control; type: functional, cell-based
[9] = Toxicity in athymic BALB/c nu/nu nude mouse xenografted with human MIAPaCa2 cells assessed as body weight at 120 mg/kg dosed every 3 days and co-treated with 10 mg/kg OGF measured on day 45 after tumor cell inoculation (reference value: 33.3 +/- 1 g); type: organism-based; conditions: in vivo, 72 h
[10] = tested on: MIA PaCa-2; test: Antitumor activity against human MIAPaCa2 cells xenografted in athymic BALB/c nu/nu nude mouse assessed as tumor incidence at 120 mg/kg dosed every 3 days and co-treated with 10 mg/kg OGF measured on day 10 after tumor cell inoculation (reference value: 80%); type: functional

Nc1ccn([C@@H]2O[C@H](CO)[C@@H](O)C2(F)F)c(=O)n1 [GEMCITABINE]
Activity [1]: 1477 mm3 | growth inhibition (GI) [2]: 26.3% | Activity [3]: 0.8 g | Time [4]: 6 days | Activity [5]: 60% | Activity [6]: 31.4 g | growth inhibition (GI) [7]: Active | growth inhibition (GI) [8]: Active | Activity [9]: 30.6 g | Activity [10]: 0%
